The source of these data is patent publication US20170158699A1, “ADDITION SALTS OF (S)-2-(1-(6-AMINO-5-CYANOPYRIMIDIN-4-YLAMINO)ETHYL)-4-OXO-3-PHENYL-3,4-DIHYDROPYRROLO[1,2-F][1,2,4]TRIAZINE-5-CARBONITRILE” (Almirall, S.A., priority 2014, published 2017).

Format in all cases: physicochemical
A short description of data set [1]: Gravimetric Vapour Sorption (GVS) isotherm, XRPD checked afterwards. The note with it: for Hygroscopicity / water sorption behaviour (GVS): 0-90% RH; for Hygroscopicity / water sorption behaviour (GVS) / GVS mass change: 25° C.; for Change in form or crystallinity (XRPD) after GVS measurement: XRPD before and after GVS; for GVS mass change: from 0-90% RH. As to the method:
X-Ray Powder Diffraction (XRPD) patterns were collected on a Bruker D8 diffractometer using Cu Ka radiation (40 kV, 40 mA), θ-2θ goniometer, and divergence of V4 and receiving slits, a Ge monochromator and a Lynxeye detector. The instrument is performance checked using a certified Corundum standard (NIST 1976). The software used for data collection was Diffrac Plus XRD Commander v2.6.1 and the data were analysed and presented using Diffrac Plus EVA v13.0.0.2 or v15.0.0.0.
Samples were run under ambient conditions as flat plate specimens using powder as received. The sample was gently packed into a cavity cut into polished, zero-background (510) silicon wafer. The sample was rotated in its own plane during analysis. The details of the data collection were: • Angular range: 2 to 42° 2θ • Step size: 0.05° 2θ • Collection time: 0.5 s/step
Gravimetric Vapour Sorption (GVS; also known as Dynamic Vapour Sorption or DVS) isotherms were obtained using a SMS DVS Intrinsic moisture sorption analyser, controlled by DVS Intrinsic Control software v1.0.1.2. The sample temperature was maintained at 25° C. by the instrument controls. The humidity was controlled by mixing streams of dry and wet nitrogen, with a total flow rate of 200 mL/min The relative humidity was measured by a calibrated Rotronic probe (dynamic range of 1.0-100% RH), located near the sample. The weight change, (mass relaxation) of the sample as a function of % RH was constantly monitored by the microbalance (accuracy ±0.005 mg).
Typically 5-20 mg of sample were placed in a tared mesh stainless steel basket under ambient conditions. The sample was loaded and unloaded at 40% RH and 25° C. (typical room conditions). A moisture sorption isotherm was performed as outlined below (4 scans giving 2 complete cycles). The standard isotherm was performed at 25° C. at 10% RH intervals over a 0-90% RH range.

Data set [2] in a line: Differential scanning calorimetry (DSC) thermal stability. As to the method:
The differential scanning calorimetry (DSC) thermograms were obtained using a TA Instruments Q2000 equipped with a 50 position auto-sampler. The calibration for thermal capacity was carried out using sapphire and the calibration for energy and temperature was carried out using certified indium. […] (some runs up to 400° C.). A purge of dry nitrogen at 50 ml/min was maintained over the sample.
A general note: In DSC, transitions show as peaks or steps in heat flow.

Another data set is described as follows: Water-solubility test. As to conditions: room temperature (25° C.).

In brackets after ≈: the same amount, converted by molar mass. Read-outs that look alike come from different tables or passages of the source.

With `C[C@H](Nc1ncnc(N)c1C#N)c1nn2ccc(C#N)c2c(=O)n1-c1ccccc1.Cc1ccc(S(=O)(=O)O)cc1` [Example 3, (S)-2-(1-(6-amino-5-cyanopyrimidin-4-ylamino)ethyl)-4-oxo-3-phenyl-3,4-dihydropyrrolo[1,2-f][1,2,4]triazine-5-carbonitrile para-toluenesulfonate], in data set [1], the “Hygroscopicity / water sorption behaviour (GVS)” value is listed as “not hygroscopic”, the “Change in form or crystallinity (XRPD) after GVS measurement” value (“Change in form or crystallinity (XRPD)” below) is reported as “no change in form or crystallinity” and the GVS mass change entry is recorded as “approx. 0.3%”. The “Stability of the sample up to temperature (DSC)” value (from here on “Stability of the sample up”) in data set [2] is “more than 250 °C”.
For “(S)-2-(1-(6-amino-5-cyanopyrimidin-4-ylamino)ethyl)-4-oxo-3-phenyl-3,4-dihydropyrrolo[1,2-f][1,2,4]triazine-5-carbonitrile methanesulfonate [Example 1]”, the “Water Solubility @ 25° C.” value in the data set “Water-solubility test” was 0.06 mg/mL. Further, in data set [1], the “Hygroscopicity / water sorption behaviour (GVS)” value is recorded as “not hygroscopic”, the “Change in form or crystallinity (XRPD)” value is listed as “no change in form or crystallinity” and the GVS mass change entry is “approx. 1.2%”. In data set [2] (heated at 10° C./min, dry nitrogen purge), the “Stability of the sample up” value was “more than 300 °C”.
As for `C[C@H](Nc1ncnc(N)c1C#N)c1nn2ccc(C#N)c2c(=O)n1-c1ccccc1.O=S(=O)(O)c1ccc2ccccc2c1` [Example 2, (S)-2-(1-(6-amino-5-cyanopyrimidin-4-ylamino)ethyl)-4-oxo-3-phenyl-3,4-dihydropyrrolo[1,2-f][1,2,4]triazine-5-carbonitrile naphthalene-2-sulfonate], in data set [1], the “Hygroscopicity / water sorption behaviour (GVS)” value was “reversible and no hydrates were formed”; the “Change in form or crystallinity (XRPD)” value is on record as “no change in form or crystallinity”; the GVS mass change entry is recorded as “approx. 3.3%”. The “Stability of the sample up” value in data set [2] is “more than 250 °C”.
Compound `C[C@H](Nc1ncnc(N)c1C#N)c1nn2ccc(C#N)c2c(=O)n1-c1ccccc1` [Example C1, (S)-2-(1-(6-amino-5-cyanopyrimidin-4-ylamino)ethyl)-4-oxo-3-phenyl-3,4-dihydropyrrolo[1,2-f][1,2,4]triazine-5-carbonitrile] yielded a solubility in “Water-solubility test” of 1 µg/mL (≈ 2.52 µM).

The solubility is the dissolved amount per volume that the medium holds. Lower therefore signals a poorly soluble substance.
